Patent publication US8927559B2, “Quinazolinone-type compounds as CRTH2 antagonists” (Merck Sharp & Dohme Corp., priority 2010, dated 2015)
Where “and” joins values, the source holds several entries; their conditions need not be identical. Identical values can stand only once. Like-named read-outs stand apart in the source and are kept apart here.

Target: T1, CRTH2 receptor (hCRTH2) (Homo sapiens, UniProt Q9Y5Y4)
T1 construct: expressed in transfected cells; host or cells: HEK cells (HEK-hCRTH2 cell line), membranes
T1 sequence (Q9Y5Y4 1-395): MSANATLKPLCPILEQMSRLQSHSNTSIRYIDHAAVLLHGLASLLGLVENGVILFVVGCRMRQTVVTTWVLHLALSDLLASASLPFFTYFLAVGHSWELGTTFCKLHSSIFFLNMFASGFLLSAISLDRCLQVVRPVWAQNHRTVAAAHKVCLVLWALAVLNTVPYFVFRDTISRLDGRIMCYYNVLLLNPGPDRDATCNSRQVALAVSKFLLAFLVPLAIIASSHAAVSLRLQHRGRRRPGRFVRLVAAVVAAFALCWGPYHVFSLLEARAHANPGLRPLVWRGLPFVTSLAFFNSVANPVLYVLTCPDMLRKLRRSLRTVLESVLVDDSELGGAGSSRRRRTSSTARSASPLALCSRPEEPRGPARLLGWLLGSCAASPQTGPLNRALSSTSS
Assay: Radioligand binding assay ([3H]PGD2 competition, membranes of HEK-hCRTH2 cell line)
Details: 3.0 nM [3H]PGD2, HEK-hCRTH2 membranes, 60 min, room temperature
In short: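 Membranes (8-20 μg protein) from HEK cells expressing human CRTH2 were incubated with [3H]PGD2 and competitor in 1% DMSO for 60 min at room temperature. Non-specific binding was defined with excess PGD2. Bound radioactivity was separated by filtration and counted by melt-on scintillation.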

CC1(c2ccc(C#N)cc2)CC(c2ccc3c(=O)n(-c4ccc(Cl)cc4)c(CCCCC(=O)O)nc3c2)=NO1 (stereo not drawn) [Example 113]
Ki (read-out: Ki): ≤ 10 nM

C[C@](O)(c1ccc(F)cc1)c1cc(-c2ccc3c(=O)n(-c4ccc(F)cc4)c(CCCCC(=O)O)nc3c2)no1 [Example 259]
Ki (read-out: Ki): 10 to 50 nM

O=C(O)CCCCc1nc2cc(C3=NOC(c4nc5ccc(Cl)cc5s4)C3)ccc2c(=O)n1-c1ccc(F)cc1 (stereo not drawn) [Example 151]
Ki (read-out: Ki): ≤ 10 nM

CC1(C(=O)N2CCc3ccccc32)CC(c2ccc3c(=O)n(-c4ccc(F)cc4)c(CCCCC(=O)O)nc3c2)=NO1 (stereo not drawn) [Example 211]
Ki (read-out: Ki): ≤ 10 nM

O=C(O)CCCCc1nc2cc(-c3nc(Cc4ccc(F)cc4)no3)ccc2c(=O)n1-c1ccc(F)cc1 [Example 22C]
Ki (read-out: Ki): 10 to 50 nM

C[C@]1([C@H](O)c2ccccc2)CC(c2ccc3c(=O)n(-c4ccc(F)cc4)c(CCCCC(=O)O)nc3c2)=NO1 [Example 26G]
Ki (read-out: Ki): 10 to 50 nM

C[C@]1(C(=O)N[C@@H]2c3ccccc3C[C@@H]2O)CC(c2ccc3c(=O)n(-c4ccc(F)cc4)c(CCCCC(=O)O)nc3c2)=NO1 [Example 216]
Ki (read-out: Ki): 10 to 50 nM

CC(c1ccc(F)cc1)C1(C)CC(c2ccc3c(=O)n(-c4ccc(F)cc4)c(CCCCC(=O)O)nc3c2)=NO1 (stereo not drawn) [Example 262]
Ki (read-out: Ki): ≤ 10 nM

C[C@@]1(c2nc3ccc(F)cc3o2)CC(c2ccc3c(=O)n(-c4ccc(F)cc4)c(CCCCC(=O)O)nc3c2)=NO1 [Example 184]
Ki (read-out: Ki): ≤ 10 nM and 5.7 nM

O=C(O)CCCCc1nc2cc(-c3cc(Cc4cnc5ccccc5n4)on3)ccc2c(=O)n1-c1ccc(F)cc1 [Example 25L]
Ki (read-out: Ki): ≤ 10 nM

O=C(O)CCCCc1nc2cc(-c3cc(C(F)(F)F)on3)ccc2c(=O)n1-c1ccc(F)cc1 [Example 5M]
Ki (read-out: Ki): ≤ 10 nM

N#CC1CC2(CC(c3ccc4c(=O)n(-c5ccc(Cl)cc5)c(CCCCC(=O)O)nc4c3)=NO2)C1 (stereo not drawn) [Example 15Z]
Ki (read-out: Ki): ≤ 10 nM

C[C@@H](c1ccc(F)cc1)c1cc(-c2ccc3c(=O)n(-c4ccc(F)cc4)c(CCCCC(=O)O)nc3c2)no1 [Example 264]
Ki (read-out: Ki): ≤ 10 nM

O=C(O)CCCCc1nc2cc(-c3cc(COCc4cc(F)ccc4F)on3)ccc2c(=O)n1-c1ccc(F)cc1 [Example 275]
Ki (read-out: Ki): ≤ 10 nM

C[C@@H]1C(c2ccc3c(=O)n(-c4ccc(F)cc4)c(CCCCC(=O)O)nc3c2)=NO[C@@H]1c1ccccc1 [Example 285]
Ki (read-out: Ki): ≤ 10 nM

O=C(O)CCCCc1nc2cc(-c3cc(COCc4cccc(F)c4)on3)ccc2c(=O)n1-c1ccc(F)cc1 [Example 276]
Ki (read-out: Ki): ≤ 10 nM

C[C@H](c1ccc(F)cc1)c1cc(-c2ccc3c(=O)n(-c4ccc(F)cc4)c(CCCCC(=O)O)nc3c2)no1 [Example 263]
Ki (read-out: Ki): ≤ 10 nM

COc1ccc2[nH]c(SCc3cc(-c4ccc5c(=O)n(-c6ccc(F)cc6)c(CCCCC(=O)O)nc5c4)no3)nc2c1 [Example 39H]
Ki (read-out: Ki): 10 to 50 nM

CC(CCCc1nc2cc(C3=NOC(C)(c4nc5ccccc5o4)C3)ccc2c(=O)n1-c1ccc(F)cc1)C(=O)O (stereo not drawn) [Example 108]
Ki (read-out: Ki): ≤ 10 nM

C[C@]1([C@H](O)c2ccccc2)CC(c2ccc3c(=O)n(-c4ccccc4)c(CCCCC(=O)O)nc3c2)=NO1 [Example 26K]
Ki (read-out: Ki): 10 to 50 nM

C[C@]1(c2nc3cc(F)ccc3o2)CC(c2ccc3c(=O)n(-c4ccc(F)cc4)c(CCCCC(=O)O)nc3c2)=NO1 [Example 164]
Ki (read-out: Ki): 10 to 50 nM

O=C(O)CCCCc1nc2cc(-c3noc(C4Cc5ccccc5C4)n3)ccc2c(=O)n1-c1ccc(F)cc1 [Example 242]
Ki (read-out: Ki): ≤ 10 nM

O=C(O)CCCCc1nc2cc(-c3cc(-c4ccc5ccccc5n4)on3)ccc2c(=O)n1-c1ccc(F)cc1 [Example 33]
Ki (read-out: Ki): ≤ 10 nM

O=C(O)CCCCc1nc2cc(C3=NOC4(C3)Cc3ccccc3C4)ccc2c(=O)n1-c1ccc(F)cc1 [Example 145]
Ki (read-out: Ki): ≤ 10 nM

CC1(c2ncc3ccccn23)CC(c2ccc3c(=O)n(-c4ccc(F)cc4)c(CCCCC(=O)O)nc3c2)=NO1 (stereo not drawn) [Example 226]
Ki (read-out: Ki): 10 to 50 nM

COc1ccc2[nH]c(S(=O)(=O)Cc3cc(-c4ccc5c(=O)n(-c6ccc(F)cc6)c(CCCCC(=O)O)nc5c4)no3)nc2c1 [Example 39J]
Ki (read-out: Ki): ≤ 10 nM

CC1(c2ccc(F)cc2)CC(c2ccc3c(=O)n(-c4ccc(F)cc4)c(CCCCC(=O)O)nc3c2)=NO1 (stereo not drawn) [Example 122]
Ki (Ki): ≤ 10 nM

O=C(O)CCCCc1nc2cc(-c3noc(C4CCc5ccccc5C4)n3)ccc2c(=O)n1-c1ccc(F)cc1 (stereo not drawn) [Example 247]
Ki (read-out: Ki): 10 to 50 nM

CC1(C(=O)O)CC(c2ccc3c(=O)n(-c4ccc(F)cc4)c(CCCCC(=O)O)nc3c2)=NO1 (stereo not drawn) [Example 200]
Ki (read-out: Ki): 10 to 50 nM

O=C(O)CCCCc1nc2cc(-c3cc(CN4CCc5ccccc54)on3)ccc2c(=O)n1-c1ccc(F)cc1 [Example 106]
Ki (read-out: Ki): ≤ 10 nM

CC(C)(C)c1ccc(S(=O)(=O)NCc2cc(-c3ccc4c(=O)n(-c5ccc(F)cc5)c(CCCCC(=O)O)nc4c3)no2)cc1 [Example 24L]
Ki (read-out: Ki): 10 to 50 nM

Cc1cccc2[nH]c([C@]3(C)CC(c4ccc5c(=O)n(-c6ccc(F)cc6)c(CCCCC(=O)O)nc5c4)=NO3)nc12 [Example 203]
Ki (read-out: Ki): ≤ 10 nM

O=C(O)CCCCc1nc2cc(-c3cc(CS(=O)(=O)c4nc5cc(OC(F)F)ccc5[nH]4)on3)ccc2c(=O)n1-c1ccc(F)cc1 [Example 39E, 5-(7-(5-((5-(difluoromethoxy)-1H-benzo[d]imidazol-2-ylsulfonyl)methyl)isoxazol-3-yl)-3-(4-fluorophenyl)-4-oxo-3,4-dihydroquinazolin-2-yl)pentanoic acid]
Ki (read-out: Ki): 10 to 50 nM

O=C(O)CCCCc1nc2cc(-c3cc(CNS(=O)(=O)c4ccc(OC(F)(F)F)cc4)on3)ccc2c(=O)n1-c1ccc(F)cc1 [Example 24i]
Ki (read-out: Ki): ≤ 10 nM

C[C@@]1(c2cn3ccccc3n2)CC(c2ccc3c(=O)n(-c4ccc(F)cc4)c(CCCCC(=O)O)nc3c2)=NO1 [Example 178]
Ki (read-out: Ki): ≤ 10 nM

C[C@@]1(c2nc3ccc(Cl)cc3[nH]2)CC(c2ccc3c(=O)n(-c4ccc(F)cc4)c(CCCCC(=O)O)nc3c2)=NO1 [Example 186]
Ki (read-out: Ki): ≤ 10 nM

O=C(O)CCCCc1nc2cc(C3=NOC(c4nc5ccccc5o4)C3)ccc2c(=O)n1-c1ccc(F)cc1 (stereo not drawn) [Example 28, 5-(7-(5-(benzo[d]oxazol-2-yl)-4,5-dihydroisoxazol-3-yl)-3-(4-fluorophenyl)-4-oxo-3,4-dihydroquinazolin-2-yl)pentanoic acid]
Ki (read-out: Ki): ≤ 10 nM

CC[C@@](O)(c1ccc(F)cc1)c1cc(-c2ccc3c(=O)n(-c4ccc(F)cc4)c(CCCCC(=O)O)nc3c2)no1 [Example 256]
Ki (read-out: Ki): ≤ 10 nM

CO[C@@H](c1ccccc1)c1cc(-c2ccc3c(=O)n(-c4ccc(F)cc4)c(CCCCC(=O)O)nc3c2)no1 [Example 147]
Ki (read-out: Ki): ≤ 10 nM

C[C@@]1(c2nc3ccc(F)cc3[nH]2)CC(c2ccc3c(=O)n(-c4ccc(F)cc4)c(CCCCC(=O)O)nc3c2)=NO1 [Example 182]
Ki (read-out: Ki): ≤ 10 nM

CC1(c2nc3cc(Cl)ccc3[nH]2)CC(c2ccc3c(=O)n(-c4ccc(Cl)cc4)c(CCCCC(=O)O)nc3c2)=NO1 (stereo not drawn) [Example 206]
Ki (read-out: Ki): ≤ 10 nM

CC1(c2cnc3ccccc3n2)CC(c2ccc3c(=O)n(-c4ccc(F)cc4)c(CCCCC(=O)O)nc3c2)=NO1 (stereo not drawn) [Example 230]
Ki (read-out: Ki): 10 to 50 nM

C[C@H](Oc1ccc(F)cc1)c1cc(-c2ccc3c(=O)n(-c4ccc(F)cc4)c(CCCCC(=O)O)nc3c2)no1 [Example 268]
Ki (read-out: Ki): ≤ 10 nM

C[C@@]1(C(=O)N[C@H]2c3ccccc3C[C@H]2O)CC(c2ccc3c(=O)n(-c4ccc(F)cc4)c(CCCCC(=O)O)nc3c2)=NO1 [Example 215]
Ki (read-out: Ki): ≤ 10 nM

O=C(O)CCCCc1nc2cc(C3=NO[C@@H](c4nc5ccc(Cl)cc5o4)C3)ccc2c(=O)n1-c1ccc(F)cc1 [Example 153]
Ki (read-out: Ki): ≤ 10 nM

CC1(C(=O)N2CCCCC2)CC(c2ccc3c(=O)n(-c4ccc(F)cc4)c(CCCCC(=O)O)nc3c2)=NO1 (stereo not drawn) [Example 212]
Ki (read-out: Ki): 10 to 50 nM

COc1ccc(Cc2nc(-c3ccc4c(=O)n(-c5ccc(F)cc5)c(CCCCC(=O)O)nc4c3)no2)cc1 [Example 240]
Ki (read-out: Ki): ≤ 10 nM

O=C(O)CCCCc1nc2cc(-c3cc(-c4ccc(F)cc4)on3)ccc2c(=O)n1-c1ccc(F)cc1 [Example 5N]
Ki (read-out: Ki): ≤ 10 nM

N#CC1CC2(CC(c3ccc4c(=O)n(-c5ccc(F)cc5)c(CCCCC(=O)O)nc4c3)=NO2)C1 (stereo not drawn) [Example 112]
Ki (read-out: Ki): ≤ 10 nM

C[C@]1(c2nc3ccccc3[nH]2)CC(c2ccc3c(=O)n(-c4ccc(F)cc4)c(CCCCC(=O)O)nc3c2)=NO1 [Example 176]
Ki (read-out: Ki): ≤ 10 nM

O=C(O)CCCCc1nc2cc(-c3noc(-c4ccc(C(F)(F)F)cc4)n3)ccc2c(=O)n1-c1ccc(F)cc1 [Example 104]
Ki (read-out: Ki): 10 to 50 nM

O=C(O)CCCCc1nc2cc(C3=NOC(c4ccccc4)(C(F)(F)F)C3)ccc2c(=O)n1-c1ccc(F)cc1 (stereo not drawn) [Example 127]
Ki (read-out: Ki): 10 to 50 nM

O=C(O)CCCCc1nc2cc(-c3cc(Cc4ccc(F)cc4)on3)ccc2c(=O)n1-c1ccc(F)cc1 [Example 25, 5-(7-(5-(4-fluorobenzyl)isoxazol-3-yl)-3-(4-fluorophenyl)-4-oxo-3,4-dihydroquinazolin-2-yl)pentanoic acid]
Ki (read-out: Ki): ≤ 10 nM and 1 nM

O=C(O)CCCCc1nc2cc(-c3cc(COCc4cccc(-c5ccccc5)c4)on3)ccc2c(=O)n1-c1ccc(F)cc1 [Example 282]
Ki (read-out: Ki): ≤ 10 nM
